Measured values as given in the supplement of paper PMC5908809.

Tests used:
[1] = system: normal NK cells expanded with K562-aAPC; assay: percent inhibition of viability; higher = more inhibition; conditions: 72 h, IL-2 2.5 ng/mL
Procedure: (§1)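 Drug sensitivity and resistance testing on K562-aAPC-expanded normal NK cells: 5 concentrations (10-fold steps over a 10,000-fold range), 72 h at 37 °C, viability by CellTiter-Glo normalised to DMSO and benzethonium chloride controls; DSS from the fitted curve.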

DERL-7 (IL-2 2.5 ng/mL) [2] = assay: as above; conditions: 72 h
IMC-1 (IL-2 20 ng/mL) [3] = assay: as above; conditions: 72 h
KAI3 (IL-2 2.5 ng/mL) [4] = assay: as above; conditions: 72 h
KHYG-1 (IL-2 2.5 ng/mL) [5] = assay: as above; conditions: 72 h
NK-92 (IL-2 2.5 ng/mL) [6] = assay: as above; conditions: 72 h
NK-YS (IL-2 2.5 ng/mL) [7] = assay: as above; conditions: 72 h
NKL (IL-2 2.5 ng/mL) [8] = assay: as above; conditions: 72 h
SNK-6 (IL-2 2.5 ng/mL) [9] = assay: as above; conditions: 72 h
YT (IL-2 2.5 ng/mL) [10] = assay: as above; conditions: 72 h
[11] = system: normal primary NK cells, pool 1 (3 donors) (IL-2 2.5 ng/mL); assay: as above; conditions: 72 h
[12] = system: normal primary NK cells, pool 1 (3 donors), resting (IL-2 0 ng/mL); assay: as above; conditions: 72 h
[13] = system: normal primary NK cells, pool 2 (3 donors) (IL-2 2.5 ng/mL); assay: as above; conditions: 72 h
[14] = system: normal primary NK cells, pool 3 (3 donors) (IL-2 2.5 ng/mL); assay: as above; conditions: 72 h
[15] = system: normal NK cells expanded with K562-aAPC; assay: drug sensitivity score (DSS) (DSS units); higher = more sensitive; extreme values may be limits of the assay; conditions: 72 h; IL-2 2.5 ng/mL
Procedure: as §1

DERL-7 (IL-2 2.5 ng/mL) [16] = assay: as above; conditions: 72 h
IMC-1 (IL-2 20 ng/mL) [17] = assay: as above; conditions: 72 h
KAI3 (IL-2 2.5 ng/mL) [18] = assay: as above; conditions: 72 h
KHYG-1 (IL-2 2.5 ng/mL) [19] = assay: as above; conditions: 72 h
NK-92 (IL-2 2.5 ng/mL) [20] = assay: as above; conditions: 72 h
NK-YS (IL-2 2.5 ng/mL) [21] = assay: as above; conditions: 72 h
NKL (IL-2 2.5 ng/mL) [22] = assay: as above; conditions: 72 h
SNK-6 (IL-2 2.5 ng/mL) [23] = assay: as above; conditions: 72 h
YT (IL-2 2.5 ng/mL) [24] = assay: as above; conditions: 72 h
[25] = system: normal primary NK cells, pool 1 (3 donors) (IL-2 2.5 ng/mL); assay: as above; conditions: 72 h
[26] = system: normal primary NK cells, pool 1 (3 donors), resting (IL-2 0 ng/mL); assay: as above; conditions: 72 h
[27] = system: normal primary NK cells, pool 2 (3 donors) (IL-2 2.5 ng/mL); assay: as above; conditions: 72 h
[28] = system: normal primary NK cells, pool 3 (3 donors) (IL-2 2.5 ng/mL); assay: as above; conditions: 72 h

CN1CCC(COc2cnc(-c3cccc(Cn4nc(-c5cccc(C#N)c5)ccc4=O)c3)nc2)CC1 (max concentration tested 1000 nM)
percent inhibition of viability [%]
Conditions	0.1 nM	1 nM	10 nM	100 nM	1000 nM
DERL-7 (IL-2 2.5 ng/mL) [2]	-4.25	-4.18	3.15	4.81	39.5
IMC-1 (IL-2 20 ng/mL) [3]	-6.71	-2.19	-0.81	-1.98	-3.26
KAI3 (IL-2 2.5 ng/mL) [4]	-0.84	-8.6	-8.84	-7.75	-3.69
KHYG-1 (IL-2 2.5 ng/mL) [5]	0.03	-2.13	-6.37	1.52	15.3
NK-92 (IL-2 2.5 ng/mL) [6]	-7.1	-4.45	1.23	-11.4	6.42
NK-YS (IL-2 2.5 ng/mL) [7]	-1.64	-6.91	-7.12	-5.26	-5.69
NKL (IL-2 2.5 ng/mL) [8]	4.34	-14.9	-8.56	-9.54	20.4
SNK-6 (IL-2 2.5 ng/mL) [9]	10.8	3.77	-9.85	14	13.7
YT (IL-2 2.5 ng/mL) [10]	4	0.64	-1.46	-0.52	-0.42
[1]	-4.81	-10.8	-1.01	-5.56	4.27
[11]	-7	-6.88	-13.8	1.64	4.06
[12]	-5.12	-27.4	-19.6	3.81	3.64
[13]	-17.1	4.11	-9.87	-10	-13.3
[14]	-8.96	-8.97	-7.75	-16	-13.7

Conditions	drug sensitivity score
DERL-7 (IL-2 2.5 ng/mL) [16]	2.76
IMC-1 (IL-2 20 ng/mL) [17]	0
KAI3 (IL-2 2.5 ng/mL) [18]	0
KHYG-1 (IL-2 2.5 ng/mL) [19]	0.39
NK-92 (IL-2 2.5 ng/mL) [20]	0
NK-YS (IL-2 2.5 ng/mL) [21]	0
NKL (IL-2 2.5 ng/mL) [22]	0.35
SNK-6 (IL-2 2.5 ng/mL) [23]	1.09
YT (IL-2 2.5 ng/mL) [24]	0
[15]	0
[25]	0
[26]	0
[27]	0
[28]	0

N#Cc1ccc(C(c2ccc(C#N)cc2)n2cncn2)cc1 [Letrozole] (max concentration tested 10000 nM)
percent inhibition of viability [%]
Conditions	1 nM	10 nM	100 nM	1000 nM	10000 nM
DERL-7 (IL-2 2.5 ng/mL) [2]	3.92	-4.41	0.76	-20.5	-8.07
IMC-1 (IL-2 20 ng/mL) [3]	-2.09	-2.27	-1.74	2.28	8.91
KAI3 (IL-2 2.5 ng/mL) [4]	-6.48	-8.29	2.19	2.56	14.1
KHYG-1 (IL-2 2.5 ng/mL) [5]	-7.78	-5.69	-3.04	-1.07	5.03
NK-92 (IL-2 2.5 ng/mL) [6]	-10.2	-8	-6.61	-5.03	17.5
NK-YS (IL-2 2.5 ng/mL) [7]	-8.7	-6.85	-4.19	1.26	9.67
NKL (IL-2 2.5 ng/mL) [8]	-6.26	-9.07	3.52	11.2	10.6
SNK-6 (IL-2 2.5 ng/mL) [9]	14.2	-31.4	-25.2	-23.6	-28.2
YT (IL-2 2.5 ng/mL) [10]	0.65	-5.8	1.61	-1.29	30.5
[1]	-3.92	-7.21	-4.76	2.21	7.69
[11]	-10.5	0.24	0.58	3.66	5.55
[12]	-3.46	12.2	4.99	1.86	7.77
[13]	-3.07	-5.44	6.01	0.12	-0.44
[14]	2.09	-1.11	10.7	-4.55	-7.8

Conditions	drug sensitivity score
DERL-7 (IL-2 2.5 ng/mL) [16]	0
IMC-1 (IL-2 20 ng/mL) [17]	0
KAI3 (IL-2 2.5 ng/mL) [18]	0.38
KHYG-1 (IL-2 2.5 ng/mL) [19]	0
NK-92 (IL-2 2.5 ng/mL) [20]	0.25
NK-YS (IL-2 2.5 ng/mL) [21]	0
NKL (IL-2 2.5 ng/mL) [22]	0.42
SNK-6 (IL-2 2.5 ng/mL) [23]	0
YT (IL-2 2.5 ng/mL) [24]	1.23
[15]	0
[25]	0
[26]	0
[27]	0
[28]	0

Cn1cc(-c2cnn3c(N)c(Br)c([C@@H]4CCCNC4)nc23)cn1 [MK-8776] (max concentration tested 2500 nM)
percent inhibition of viability [%]
Conditions	0.25 nM	2.5 nM	25 nM	250 nM	2500 nM
DERL-7 (IL-2 2.5 ng/mL) [2]	-4.26	-3.5	3.67	6.88	55.8
IMC-1 (IL-2 20 ng/mL) [3]	0.83	-1.94	-0.11	-7.96	-12.2
KAI3 (IL-2 2.5 ng/mL) [4]	3.31	2.43	4.64	27.4	78.2
KHYG-1 (IL-2 2.5 ng/mL) [5]	-1.01	-4.38	-0.53	35.5	96.9
NK-92 (IL-2 2.5 ng/mL) [6]	-2.81	3.64	-4.5	1.39	59.4
NK-YS (IL-2 2.5 ng/mL) [7]	-4.27	-8.69	-3.31	4.44	71.2
NKL (IL-2 2.5 ng/mL) [8]	-4.57	-4.36	-8.73	22.1	81.6
SNK-6 (IL-2 2.5 ng/mL) [9]	9.37	1.96	-6.2	5.96	39.8
YT (IL-2 2.5 ng/mL) [10]	0.02	-2.99	0.3	1.22	7.84
[1]	-4.61	0.4	-2.28	10.6	52.3
[11]	-5.76	-3.11	7.06	4.82	30.9
[12]	-9.91	-16.5	4.6	0.8	20
[13]	-8.05	-5.57	-3.65	-0.92	21.5
[14]	-9.21	-3.85	-3.76	-1.26	7.54

Conditions	drug sensitivity score
DERL-7 (IL-2 2.5 ng/mL) [16]	4.16
IMC-1 (IL-2 20 ng/mL) [17]	0
KAI3 (IL-2 2.5 ng/mL) [18]	7.81
KHYG-1 (IL-2 2.5 ng/mL) [19]	10.2
NK-92 (IL-2 2.5 ng/mL) [20]	3.39
NK-YS (IL-2 2.5 ng/mL) [21]	4.58
NKL (IL-2 2.5 ng/mL) [22]	7.86
SNK-6 (IL-2 2.5 ng/mL) [23]	2.97
YT (IL-2 2.5 ng/mL) [24]	0
[15]	4.51
[25]	2.16
[26]	0.68
[27]	0.64
[28]	0
